Measured values taken from patent publication US9045472B2, “Imidazoquinoline compounds” (ASTRAZENECA AB, priority 2010, dated 2015).

Tests used:
Human plasma stability = format: in vitro ADME; conditions: 37° C., 1 μM final incubation concentration, parent compound by LC-MS-MS
Procedure: (§1) To determine the half life of the test compound in human plasma, incubations were performed at 37° C. in a shaking water bath. Compound (5 μL of a 100 μM stock in MeCN) was spiked into 0.495 mL plasma to give a final incubation concentration of 1 μM. Aliquots (50 μL) were withdrawn at various time points (typically 0, 20 and 40 sec, 1, 2, 3, 5 and 10 mins) and quenched into MeCN (300 μL) followed by analysis for parent compound by LC-MS-MS (MRM mode). The half life was calculated from the decline of test compound peak area over time.

[1] = Cynomolgous monkey plasma stability; format: in vitro ADME; conditions: 37° C., 1 μM final incubation concentration, parent compound by LC-MS-MS
Procedure: Cynomolgous Monkey Plasma Stability
as §1, with “cynomolgous monkey” for “human”, “The test compound” for “Compound”, “time” for “time.”

[2] = Gravimetric Vapour Sorption (GVS); format: physicochemical
Procedure: Gravimetric Vapour Sorption (GVS) profiles were measured using a TA Instruments Q5000SA instrument. Approximately 1 mg to 5 mg of the solid sample was placed into a metal vessel, and the weight of the sample was recorded during a dual cycle step method (40 to 90 to 0 to 90 to 0% relative humidity (RH), in steps of 10% RH).

human TLR7 = target: T1, human TLR7 (Homo sapiens, UniProt Q9NYK1); assay: Human TLR7 assay (SEAP reporter in HEK293 cells); format: cell-based; conditions: HEK293 cell line expressing recombinant human TLR7 and pNiFty2-SEAP reporter; overnight incubation at 37° C., 0.1% DMSO; read-out: mean pEC50 (concentration producing half of the maximal level of SEAP induction) (converted)
T1 construct: expressed in transfected cells; host or cells: HEK293 cell line stably expressing the pNiFty2-SEAP reporter plasmid; TLR7 in pUNO vector, blasticidin selection
T1 sequence (Q9NYK1 27-1049): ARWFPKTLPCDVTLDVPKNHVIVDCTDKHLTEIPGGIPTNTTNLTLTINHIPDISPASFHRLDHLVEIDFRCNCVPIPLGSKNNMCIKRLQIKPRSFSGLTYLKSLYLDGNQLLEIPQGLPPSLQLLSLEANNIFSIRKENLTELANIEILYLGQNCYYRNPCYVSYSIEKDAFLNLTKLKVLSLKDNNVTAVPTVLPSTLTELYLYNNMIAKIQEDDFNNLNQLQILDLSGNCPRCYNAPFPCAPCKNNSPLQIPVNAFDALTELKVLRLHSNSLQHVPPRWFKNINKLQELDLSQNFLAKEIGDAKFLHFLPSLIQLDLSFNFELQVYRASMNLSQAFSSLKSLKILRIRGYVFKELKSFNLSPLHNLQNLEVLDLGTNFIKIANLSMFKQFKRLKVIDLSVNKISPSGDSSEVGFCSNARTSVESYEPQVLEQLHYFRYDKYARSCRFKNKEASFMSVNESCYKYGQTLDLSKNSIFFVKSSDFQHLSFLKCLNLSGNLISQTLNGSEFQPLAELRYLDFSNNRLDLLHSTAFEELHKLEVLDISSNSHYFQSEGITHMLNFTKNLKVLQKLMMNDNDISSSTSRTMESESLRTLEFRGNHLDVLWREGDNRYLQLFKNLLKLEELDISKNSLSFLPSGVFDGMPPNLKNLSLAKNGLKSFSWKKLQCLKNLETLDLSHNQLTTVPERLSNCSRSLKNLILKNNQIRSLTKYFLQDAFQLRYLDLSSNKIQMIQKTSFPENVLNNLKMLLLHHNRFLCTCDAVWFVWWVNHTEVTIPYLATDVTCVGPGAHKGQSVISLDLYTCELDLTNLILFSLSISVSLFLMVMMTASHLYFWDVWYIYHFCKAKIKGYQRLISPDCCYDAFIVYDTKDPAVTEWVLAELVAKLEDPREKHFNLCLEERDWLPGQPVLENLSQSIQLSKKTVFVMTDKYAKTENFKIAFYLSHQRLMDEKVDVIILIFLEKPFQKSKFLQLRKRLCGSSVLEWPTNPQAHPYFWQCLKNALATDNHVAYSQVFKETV
Text: Recombinant human TLR7 was stably expressed in a HEK293 cell line already stably expressing the pNiFty2-SEAP reporter plasmid; integration of the reporter gene was maintained by selection with the antibiotic zeocin. The most common variant sequence of human TLR7 (represented by the EMBL sequence AF240467) was cloned into the mammalian cell expression vector pUNO and transfected into this reporter cell-line. Transfectants with stable expression were selected using the antibiotic blasticidin. In this reporter cell-line, expression of secreted alkaline phosphatase (SEAP) was controlled by an NFkB/ELAM-1 composite promoter comprising five NFkB sites combined with the proximal ELAM-1 promoter. TLR signaling leads to the translocation of NFkB and activation of the promoter results in expression of the SEAP gene. TLR7-specific activation was assessed by determining the level of SEAP produced following overnight incubation of the cells at 37° C. with the test compound prepared above in the presence of 0.1% (v/v) dimethylsulfoxide (DMSO). Concentration dependent induction of SEAP production by compounds was expressed as the concentration of compound which produced half of the maximal level of SEAP induction for that compound (pEC50).

Row | half-life at 1 μM (Human plasma stability) [s] | half-life at 1 μM [1] [s] | mass increase at 80% relative humidity, cycle 1 ([2]; cycle 1) [%] | mass increase at 80% relative humidity, cycle 2 ([2]; cycle 2) [%] | EC50 (human TLR7) [nM] | SMILES
1 | 42 | 660 |  |  |  | CCOCc1nc2c(N)nc3ccccc3c2n1CCCN(Cc1cccc(CC(=O)OC)c1)C(=O)CN(C)C [Comparative Example 1, Methyl 2-(3-((N-(3-(4-amino-2-(ethoxymethyl)-1H-imidazo[4,5-c]quinolin-yl)propyl)-2-(dimethylamino)acetamido)methyl)phenyl)acetate, reference compound]
2 | 18 | 72 | 0.5 | 0.64 | 39.8 | CCOCc1nc2c(N)nc3ccccc3c2n1CCCCN(Cc1cccc(CC(=O)OC)c1)C(=O)CN(CC)CC [Compound (I), Methyl (3-{[{4-[4-amino-2-(ethoxymethyl)-1H-imidazo[4,5-c]quinolin-1-yl]butyl}(N,N-diethylglycyl)amino]methyl}phenyl)acetate]
